# From patent publication US8455492B2, “Methods for treating retinal diseases” (Allergan, Inc., priority 1995, dated 2013)
# Where two headings read alike, the source gives them in different places.
# Columns and labels:
# [1] = test system: rat hippocampal neuronal cultures; test: Glutamate induced excitotoxic effects on nerve cells (percentage of dead cells, trypan blue); type: cell-based; details: FIG. 1; day 8; 1 mM glutamate; AGN-191103 0.1 nM, MK-801 10 nM
# Procedure: Low-density rat hippocampal neuronal cultures were prepared by the procedure of Goslin and Banker. […] Coverslips (13 mm) were placed in staining racks, rinsed in distilled water (four rinses, 1 min. each) to remove dust and transferred to concentrated HNO3 for 36 hours. Coverslips were rinsed in distilled water (four changes over 3 hours) and sterilized with dry heat (overnight at 225° C.). The coverslips were transferred to 24-well dishes, one coverslip per well. To support the coverslips above the glia during coculturing, paraffin dots were placed on dishes, and UV irradiation (30 min.) was applied before the coverslips were introduced. One mg/mL of poly-L-lysine hydrobromide (PLL) (Sigma) (MW 30,000-70,000) was dissolved in borate buffer (0.1 M, pH 8.5), filtered, sterilized and used to cover each coverslip overnight. The PLL was removed, coverslips were rinsed in distilled water (two washes, 2 hrs. each), plating medium [Eagle's MEM with Earle's salts containing extra glucose (600 mg/L) and 10% horse serum] was added and the dishes were stored in an incubator. […]
# After 24 hrs. of incubation, cells were stained with trypan blue. Live and dead neurons were counted from randomly selected culture fields (5 fields from each coverslip). Percentage of dead cells was calculated.
# intraocular pressure [2] = details: cats; topical to the cornea; cited from earlier work
# retina = details: FIG. 5; topical 10 μl one hour before ischemia insult; ERG one week after insult
# Procedure: FIG. 5 is a bar graph showing the results of a study to determine the topical efficacy of brimonidine in neuroprotection. The rat acute retinal ischemia model was used to provide the noxious action. Brimonidine was applied topically one hour before ischemia insult, 10 μl to one eye, 10 μl saline to the other eye. The ERG (electroretinogram) was measured one week after the insult.
# intraocular pressure [3] = details: monkeys; topical to the cornea; cited from earlier work
# intraocular pressure [4] = details: rabbits; topical to the cornea; cited from earlier work
# rat optic nerve = details: FIG. 3, optic nerve crush in rats
structure (smiles),measurement,setting,value
"C[C@]12N[C@H](Cc3ccccc31)c1ccccc12 [MK-801, dizocilpine]",protection of cells from glutamate induced neurotoxicity (percentage of cells killed),[1],comparable effects in protecting cells from glutamate induced neurotoxicity
Brc1c(NC2=NCCN2)ccc2nccnc12 [brimonidine],reduction of intraocular pressure,intraocular pressure [2],effective in reducing intraocular pressure
same,topical neuroprotection (percent of ERG signal recovery),retina,provides topical neuroprotection in a dose dependent manner
same,reduction of intraocular pressure,intraocular pressure [3],effective in reducing intraocular pressure
same,reduction of intraocular pressure,intraocular pressure [4],effective in reducing intraocular pressure
Clc1cccc(Cl)c1N=C1NCCN1 [clonidine],maximal CAP response relative to AGN 191103,rat optic nerve,about half the maximal CAP response of AGN 191013
same,neuroprotective activity (maximal CAP amplitude) versus vehicle,rat optic nerve; four concentrations,some neuroprotective activity over vehicle alone
